# Experiments:
# [1] = target: T1, Kv2.1/Kv5.1 heterotetramer (Homo sapiens, UniProt Q14721+Q9H3M0); assay: whole-cell patch clamp, current block; format: cell-based; settings: pH 7.35 outside, 20-23 °C
# T1 construct: gene KCNB1; co-transfected in mouse Ltk- cells, KvS:Kv2.1 10:1 cDNA
# T1 sequence (Q14721 1-858): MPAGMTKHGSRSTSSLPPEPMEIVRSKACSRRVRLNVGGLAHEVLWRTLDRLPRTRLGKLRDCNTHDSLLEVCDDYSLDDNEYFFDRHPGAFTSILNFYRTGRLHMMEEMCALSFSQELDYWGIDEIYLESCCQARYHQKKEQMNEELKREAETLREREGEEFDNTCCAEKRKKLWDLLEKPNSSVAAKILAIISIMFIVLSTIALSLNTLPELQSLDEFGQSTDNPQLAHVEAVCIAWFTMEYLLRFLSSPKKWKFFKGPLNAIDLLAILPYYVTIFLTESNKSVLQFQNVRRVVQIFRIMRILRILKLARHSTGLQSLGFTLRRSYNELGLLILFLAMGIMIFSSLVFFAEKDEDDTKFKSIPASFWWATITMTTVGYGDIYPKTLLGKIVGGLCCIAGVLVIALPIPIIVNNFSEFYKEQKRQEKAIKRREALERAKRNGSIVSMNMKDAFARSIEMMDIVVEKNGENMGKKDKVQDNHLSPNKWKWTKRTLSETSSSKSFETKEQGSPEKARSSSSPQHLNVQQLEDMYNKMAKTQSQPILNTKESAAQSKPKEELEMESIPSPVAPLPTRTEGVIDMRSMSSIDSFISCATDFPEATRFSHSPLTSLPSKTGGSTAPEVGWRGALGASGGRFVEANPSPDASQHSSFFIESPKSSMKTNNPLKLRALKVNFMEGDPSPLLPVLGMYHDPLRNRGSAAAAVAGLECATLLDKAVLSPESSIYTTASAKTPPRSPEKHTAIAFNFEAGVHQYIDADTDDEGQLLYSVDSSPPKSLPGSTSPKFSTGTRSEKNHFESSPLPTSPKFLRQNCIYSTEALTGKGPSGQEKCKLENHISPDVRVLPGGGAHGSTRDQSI
# T1 sequence (Q9H3M0 1-494): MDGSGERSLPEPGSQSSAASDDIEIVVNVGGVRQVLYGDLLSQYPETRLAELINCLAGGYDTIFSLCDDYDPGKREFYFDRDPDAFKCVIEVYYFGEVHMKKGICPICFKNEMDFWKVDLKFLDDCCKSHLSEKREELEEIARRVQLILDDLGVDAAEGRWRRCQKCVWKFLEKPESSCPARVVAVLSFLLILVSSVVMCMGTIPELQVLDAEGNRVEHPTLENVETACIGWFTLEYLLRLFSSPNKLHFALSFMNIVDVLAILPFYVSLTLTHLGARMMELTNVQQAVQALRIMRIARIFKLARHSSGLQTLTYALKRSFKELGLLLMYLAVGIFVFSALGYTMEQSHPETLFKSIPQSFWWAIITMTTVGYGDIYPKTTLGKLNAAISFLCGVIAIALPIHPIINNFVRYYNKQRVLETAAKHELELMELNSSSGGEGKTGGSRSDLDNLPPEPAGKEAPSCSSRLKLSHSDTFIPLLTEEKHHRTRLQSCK
# [2] = tested on: T2, Kv2.1/Kv6.4_S6c_Kv9.3; assay: whole-cell patch clamp, current block; format: cell-based, Homo sapiens (Kv2.1, Kv6.4); Mus musculus (Kv9.3 S6c); settings: pH 7.35 outside, 20-23 °C
# T2 construct: gene KCNB1
# [3] = target: T3, Kv2.1/Kv6.4 heterotetramer (Homo sapiens, UniProt Q14721+Q8TDN1); assay: whole-cell patch clamp, Hill fit of current at +[…] mV; format: cell-based
# T3 construct: gene KCNB1; co-transfected in mouse Ltk- cells, KvS:Kv2.1 10:1 cDNA; formerly named Kv6.3
# T3 sequence (Q14721 1-858): T1 sequence (Q14721 1-858)
# T3 sequence (Q8TDN1 1-519): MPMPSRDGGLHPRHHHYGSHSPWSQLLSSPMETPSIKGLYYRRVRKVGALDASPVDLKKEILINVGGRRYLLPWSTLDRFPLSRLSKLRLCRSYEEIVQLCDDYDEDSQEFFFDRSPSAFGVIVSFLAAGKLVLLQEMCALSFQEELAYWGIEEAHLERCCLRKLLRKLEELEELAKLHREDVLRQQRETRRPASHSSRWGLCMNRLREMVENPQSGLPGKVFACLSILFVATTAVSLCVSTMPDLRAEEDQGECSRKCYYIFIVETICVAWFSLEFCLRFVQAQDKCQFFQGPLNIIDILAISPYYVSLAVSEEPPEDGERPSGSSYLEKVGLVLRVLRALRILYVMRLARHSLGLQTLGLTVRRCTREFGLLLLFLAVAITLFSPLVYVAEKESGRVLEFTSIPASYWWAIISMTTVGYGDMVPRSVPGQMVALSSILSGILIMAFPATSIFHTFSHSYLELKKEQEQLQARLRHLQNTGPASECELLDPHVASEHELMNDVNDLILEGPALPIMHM
# [4] = target: T4, Kv2.1 homotetramer (Homo sapiens, UniProt Q14721); assay: as above; format: cell-based
# T4 construct: gene KCNB1; full-length in eGFP-N1 vector, transiently expressed in mouse Ltk- cells; homotetramer
# T4 sequence (Q14721 1-858): T1 sequence (Q14721 1-858)
Structure (SMILES),% inhibition at 18 mM [1],% inhibition at 18 mM [2],IC50 [3],IC50 [4]
Nc1ccncc1 [4-aminopyridine],10 ± 2%,12 ± 3%,–,–
C=C[C@H]1C[N@@]2CC[C@H]1C[C@@H]2[C@@H](O)c1ccnc2ccc(OC)cc12 [quinidine],–,–,3 ± 0.1 µM,7.2 ± 0.8 µM
O=C(NCC1CCCCN1)c1cc(OCC(F)(F)F)ccc1OCC(F)(F)F (stereo not drawn) [flecainide],–,–,2 ± 0.1 µM,7.4 ± 0.8 µM

# Source: paper PMC4623978, “Modulation of Closed−State Inactivation in Kv2.1/Kv6.4 Heterotetramers as Mechanism for 4−AP Induced Potentiation” (PLoS ONE, 2015)
